A value given as a limit tells only on which side of the number the result lay.

For one series, the system named is Human alphaherpesvirus 1. Put plainly: Antiviral activity against HSV1/F infected in African green monkey Vero cells assessed as inhibition of plaque formation after 24 hrs by crystal violet staining-based assay. It is filed as functional, organism-based. The note with it: Human alphaherpesvirus 1, strain F.
A short description of series [1]: Cytotoxicity against African green monkey Vero cells assessed as decrease in cell viability after 24 hrs by CellTiter-Glo luminescent assay. The class given is cell-based. The note with it: chlorocebus sabaeus.
Series [2] is described as follows: Selectivity index, ratio of CC50 for African green monkey Vero cells to IC50 for HSV1/F. It is filed as toxicity. To be noted: read-out: Ratio CC50/IC50.

As for `Nc1nc2c(ncn2COCCO)c(=O)[nH]1` [ACYCLOVIR], in the series on Human alphaherpesvirus 1, the IC50 turned out to be 0.15 µM. Moreover, in series [1], the CC50 at 24 h was more than 200 µM. Also, the selectivity ratio in series [2] is more than 1330.

On to `CCCCCCCCCC(=O)/C=C/c1c(CCCCCCCCC)oc2c(O)ccc(-c3oc4cc(O)cc(O)c4c(=O)c3O[C@@H]3O[C@H](CO)[C@H](O)[C@H](O)[C@H]3O)c12`, for which, in the series on Human alphaherpesvirus 1, the concentration for half-maximal inhibition (IC50) came to 17.7 µM. The CC50 at 24 h in series [1] was more than 200 µM. Further, the selectivity ratio in series [2] is more than 11.3.

With `CCCCCCCCCc1oc2c(O)ccc(-c3oc4cc(O)cc(O)c4c(=O)c3O[C@@H]3O[C@H](CO)[C@H](O)[C@H](O)[C@H]3O)c2c1C=O`, the IC50 with Human alphaherpesvirus 1 was 12.4 µM. Moreover, the CC50 at 24 h in series [1] was more than 200 µM. Further, in series [2], the selectivity ratio is more than 16.1.

These data come from ChEMBL document CHEMBL4130537, “Houttuynoid M, an Anti-HSV Active Houttuynoid from Houttuynia cordata Featuring a Bis-houttuynin Chain Tethered to a Flavonoid Core” (J Nat Prod, 2017).
